Test results taken from the kinase profiling compilation of Christmann-Franck et al. (2016).

How the values were obtained:
Experiment in all cases: KINOMEscan competition binding
Settings in all cases: compound 10.0 µM
[1] = target: CDKL5 (human) (UniProt O76039)
[2] = target: EPHB6 (human) (UniProt O15197)
[3] = target: ROCK1 (human) (UniProt Q13464)
[4] = target: EIF2AK1 (human) (UniProt Q9BQI3)
[5] = target: PKN3 (M.tuberculosis) (UniProt Q6P5Z2)
[6] = target: BTK (human) (UniProt Q06187)
[7] = target: MAP2K5 (human) (UniProt Q13163)
[8] = target: LRRK2 (human) (UniProt Q5S007)
[9] = target: HUNK (human) (UniProt P57058)
[10] = target: GRK1 (human) (UniProt Q15835)
Chain of GRK1 (human) (Q15835 whole entry, looked up): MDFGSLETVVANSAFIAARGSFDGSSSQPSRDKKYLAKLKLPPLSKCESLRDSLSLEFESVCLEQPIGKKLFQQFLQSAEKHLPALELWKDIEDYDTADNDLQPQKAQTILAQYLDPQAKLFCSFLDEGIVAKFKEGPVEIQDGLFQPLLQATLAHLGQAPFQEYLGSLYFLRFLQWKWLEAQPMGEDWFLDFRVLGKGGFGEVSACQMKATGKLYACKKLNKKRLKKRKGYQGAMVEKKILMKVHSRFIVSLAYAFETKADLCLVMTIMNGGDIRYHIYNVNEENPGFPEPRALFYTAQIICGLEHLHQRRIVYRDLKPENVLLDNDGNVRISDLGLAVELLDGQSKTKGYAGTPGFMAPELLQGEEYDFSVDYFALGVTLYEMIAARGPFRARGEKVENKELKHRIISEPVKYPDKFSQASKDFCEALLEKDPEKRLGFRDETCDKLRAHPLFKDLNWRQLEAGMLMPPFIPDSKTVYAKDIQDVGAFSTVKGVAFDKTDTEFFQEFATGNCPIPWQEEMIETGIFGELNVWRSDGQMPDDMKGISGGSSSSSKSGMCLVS

[11] = target: MATK (human) (UniProt P42679)
Chain of MATK (human) (P42679 whole entry, looked up): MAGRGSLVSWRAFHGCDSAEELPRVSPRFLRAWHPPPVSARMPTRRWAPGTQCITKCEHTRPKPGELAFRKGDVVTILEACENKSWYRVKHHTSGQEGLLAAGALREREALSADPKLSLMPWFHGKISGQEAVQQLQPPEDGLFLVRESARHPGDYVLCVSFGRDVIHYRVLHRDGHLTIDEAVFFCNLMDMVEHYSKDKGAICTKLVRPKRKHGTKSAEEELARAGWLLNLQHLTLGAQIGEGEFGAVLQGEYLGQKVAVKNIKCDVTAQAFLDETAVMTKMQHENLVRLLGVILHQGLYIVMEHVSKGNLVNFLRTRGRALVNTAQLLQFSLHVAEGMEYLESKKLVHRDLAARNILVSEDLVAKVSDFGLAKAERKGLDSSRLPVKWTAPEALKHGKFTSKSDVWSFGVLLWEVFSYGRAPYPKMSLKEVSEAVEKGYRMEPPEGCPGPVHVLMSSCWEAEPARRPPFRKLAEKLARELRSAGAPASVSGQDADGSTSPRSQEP

[12] = target: GRK4 (human) (UniProt P32298)
[13] = target: PRPF4B (human) (UniProt Q13523)
[14] = target: MAP3K15 (human) (UniProt Q6ZN16)
[15] = target: TBK1 (human) (UniProt Q9UHD2)
[16] = target: MET (human) (UniProt P08581)
[17] = target: SNRK (human) (UniProt Q9NRH2)
Chain of SNRK (human) (Q9NRH2 whole entry, looked up): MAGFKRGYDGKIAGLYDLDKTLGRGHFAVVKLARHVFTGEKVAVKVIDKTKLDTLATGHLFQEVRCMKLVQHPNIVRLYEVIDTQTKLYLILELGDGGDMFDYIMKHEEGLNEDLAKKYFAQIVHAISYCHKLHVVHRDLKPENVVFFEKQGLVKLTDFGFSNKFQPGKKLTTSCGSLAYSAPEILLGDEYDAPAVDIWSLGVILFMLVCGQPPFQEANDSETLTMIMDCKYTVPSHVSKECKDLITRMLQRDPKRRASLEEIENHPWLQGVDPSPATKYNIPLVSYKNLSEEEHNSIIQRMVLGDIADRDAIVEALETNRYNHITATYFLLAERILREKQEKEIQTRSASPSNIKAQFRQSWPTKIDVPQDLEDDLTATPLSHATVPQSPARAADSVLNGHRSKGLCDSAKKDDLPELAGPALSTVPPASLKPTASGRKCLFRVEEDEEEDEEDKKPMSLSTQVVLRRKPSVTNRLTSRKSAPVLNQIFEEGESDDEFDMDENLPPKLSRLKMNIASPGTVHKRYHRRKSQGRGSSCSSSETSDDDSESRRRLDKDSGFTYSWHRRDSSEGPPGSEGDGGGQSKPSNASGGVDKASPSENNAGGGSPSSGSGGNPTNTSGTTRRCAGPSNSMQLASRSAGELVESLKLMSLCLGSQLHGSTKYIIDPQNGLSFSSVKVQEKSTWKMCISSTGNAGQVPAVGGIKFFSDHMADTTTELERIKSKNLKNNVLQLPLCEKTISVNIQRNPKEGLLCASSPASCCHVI

[18] = target: MTOR (human) (UniProt P42345)
[19] = target: CASK (human) (UniProt O14936)
[20] = test system: PIK3CA (human), P42336 [E545A]
[21] = target: MYLK3 (human) (UniProt Q32MK0)
[22] = target: PLK2 (human) (UniProt Q9NYY3)
[23] = target: MAP3K1 (human) (UniProt Q13233)
[24] = target: VRK2 (human) (UniProt Q86Y07)
Chain of VRK2 (human) (Q86Y07 whole entry, looked up): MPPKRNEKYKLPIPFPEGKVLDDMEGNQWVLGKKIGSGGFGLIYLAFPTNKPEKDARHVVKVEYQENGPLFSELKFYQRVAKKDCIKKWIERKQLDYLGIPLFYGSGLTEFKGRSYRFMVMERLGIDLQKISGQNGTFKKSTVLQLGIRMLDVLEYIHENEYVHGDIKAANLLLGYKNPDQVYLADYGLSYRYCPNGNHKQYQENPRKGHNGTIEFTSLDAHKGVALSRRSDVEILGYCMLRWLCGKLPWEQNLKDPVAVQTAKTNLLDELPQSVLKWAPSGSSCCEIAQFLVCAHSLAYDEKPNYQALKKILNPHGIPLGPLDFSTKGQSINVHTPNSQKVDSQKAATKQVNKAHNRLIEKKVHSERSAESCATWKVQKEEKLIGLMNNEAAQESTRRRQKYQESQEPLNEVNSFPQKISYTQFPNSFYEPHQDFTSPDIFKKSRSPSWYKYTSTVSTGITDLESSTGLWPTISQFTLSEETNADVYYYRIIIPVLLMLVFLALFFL

[25] = target: SIK3 (human) (UniProt Q9Y2K2)
[26] = target: IRAK1 (human) (UniProt P51617)
[27] = target: HIPK2 (human) (UniProt Q9H2X6)
[28] = target: NEK11 (human) (UniProt Q8NG66)
[29] = target: TAOK2 (human) (UniProt Q9UL54)
[30] = target: IRAK4 (human) (UniProt Q9NWZ3)
Chain of IRAK4 (human) (Q9NWZ3 whole entry, looked up): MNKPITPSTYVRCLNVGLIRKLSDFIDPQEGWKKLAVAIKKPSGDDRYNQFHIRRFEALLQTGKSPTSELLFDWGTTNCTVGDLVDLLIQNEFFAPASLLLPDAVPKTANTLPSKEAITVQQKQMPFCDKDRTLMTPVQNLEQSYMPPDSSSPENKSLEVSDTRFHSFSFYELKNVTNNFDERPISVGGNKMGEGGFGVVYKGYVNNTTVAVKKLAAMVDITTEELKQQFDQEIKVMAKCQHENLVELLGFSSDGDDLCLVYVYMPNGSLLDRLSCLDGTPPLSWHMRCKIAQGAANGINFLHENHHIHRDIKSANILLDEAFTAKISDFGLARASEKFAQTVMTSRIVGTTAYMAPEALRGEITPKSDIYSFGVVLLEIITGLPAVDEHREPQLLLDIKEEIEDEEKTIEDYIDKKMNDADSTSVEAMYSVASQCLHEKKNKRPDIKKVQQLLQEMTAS

[31] = target: STK38 (human) (UniProt Q15208)
[32] = target: NEK4 (human) (UniProt P51957)
[33] = target: CDK2 (human) (UniProt P24941)
[34] = test system: EGFR (human), P00533 [P753S; 747-752 del]
[35] = target: TRPM6 (human) (UniProt Q9BX84)
[36] = test system: PIK3CA (human), P42336 [I800L]
[37] = test system: EGFR (human), P00533 [L861Q]
[38] = target: HIPK3 (human) (UniProt Q9H422)
[39] = target: MAP3K2 (human) (UniProt Q9Y2U5)
[40] = test system: KIT (human), P10721 [V559D/T670I]

Chain of ROCK1 (human) (Q13464 whole entry, looked up): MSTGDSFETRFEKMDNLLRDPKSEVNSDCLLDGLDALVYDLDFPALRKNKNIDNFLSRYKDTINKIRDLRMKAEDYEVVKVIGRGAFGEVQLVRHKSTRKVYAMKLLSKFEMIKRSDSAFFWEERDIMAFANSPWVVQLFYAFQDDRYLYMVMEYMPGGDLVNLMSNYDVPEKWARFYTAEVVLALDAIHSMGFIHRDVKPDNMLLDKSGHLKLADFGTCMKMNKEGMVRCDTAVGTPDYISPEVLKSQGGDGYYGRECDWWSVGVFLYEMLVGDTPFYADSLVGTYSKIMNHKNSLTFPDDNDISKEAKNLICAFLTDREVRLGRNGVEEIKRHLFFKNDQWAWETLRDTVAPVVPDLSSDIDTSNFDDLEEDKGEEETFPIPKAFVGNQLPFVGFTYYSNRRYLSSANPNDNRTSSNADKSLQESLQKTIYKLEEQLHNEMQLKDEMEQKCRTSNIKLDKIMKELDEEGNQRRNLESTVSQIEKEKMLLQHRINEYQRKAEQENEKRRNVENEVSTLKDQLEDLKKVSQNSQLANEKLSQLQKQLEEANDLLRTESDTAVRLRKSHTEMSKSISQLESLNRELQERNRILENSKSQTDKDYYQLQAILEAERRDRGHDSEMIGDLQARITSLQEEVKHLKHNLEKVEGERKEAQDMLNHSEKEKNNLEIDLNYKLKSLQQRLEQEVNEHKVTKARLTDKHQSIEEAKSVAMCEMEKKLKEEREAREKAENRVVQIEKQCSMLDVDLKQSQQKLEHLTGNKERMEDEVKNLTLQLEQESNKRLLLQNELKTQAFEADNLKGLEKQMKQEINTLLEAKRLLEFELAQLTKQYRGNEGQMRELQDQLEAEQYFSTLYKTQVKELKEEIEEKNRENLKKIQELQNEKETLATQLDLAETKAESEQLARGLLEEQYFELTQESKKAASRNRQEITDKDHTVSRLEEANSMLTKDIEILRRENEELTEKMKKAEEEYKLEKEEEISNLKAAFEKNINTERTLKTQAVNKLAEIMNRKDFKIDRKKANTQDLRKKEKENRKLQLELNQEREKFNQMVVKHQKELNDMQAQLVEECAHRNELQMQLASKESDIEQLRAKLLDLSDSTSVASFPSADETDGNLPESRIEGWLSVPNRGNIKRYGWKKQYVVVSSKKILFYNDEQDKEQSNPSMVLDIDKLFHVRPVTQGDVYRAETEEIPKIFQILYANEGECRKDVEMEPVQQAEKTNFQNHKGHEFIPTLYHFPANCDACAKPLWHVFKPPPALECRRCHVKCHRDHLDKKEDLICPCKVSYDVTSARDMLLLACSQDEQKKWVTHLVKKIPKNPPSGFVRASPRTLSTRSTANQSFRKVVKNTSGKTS
Chain of PKN3 (M.tuberculosis) (Q6P5Z2 whole entry, looked up): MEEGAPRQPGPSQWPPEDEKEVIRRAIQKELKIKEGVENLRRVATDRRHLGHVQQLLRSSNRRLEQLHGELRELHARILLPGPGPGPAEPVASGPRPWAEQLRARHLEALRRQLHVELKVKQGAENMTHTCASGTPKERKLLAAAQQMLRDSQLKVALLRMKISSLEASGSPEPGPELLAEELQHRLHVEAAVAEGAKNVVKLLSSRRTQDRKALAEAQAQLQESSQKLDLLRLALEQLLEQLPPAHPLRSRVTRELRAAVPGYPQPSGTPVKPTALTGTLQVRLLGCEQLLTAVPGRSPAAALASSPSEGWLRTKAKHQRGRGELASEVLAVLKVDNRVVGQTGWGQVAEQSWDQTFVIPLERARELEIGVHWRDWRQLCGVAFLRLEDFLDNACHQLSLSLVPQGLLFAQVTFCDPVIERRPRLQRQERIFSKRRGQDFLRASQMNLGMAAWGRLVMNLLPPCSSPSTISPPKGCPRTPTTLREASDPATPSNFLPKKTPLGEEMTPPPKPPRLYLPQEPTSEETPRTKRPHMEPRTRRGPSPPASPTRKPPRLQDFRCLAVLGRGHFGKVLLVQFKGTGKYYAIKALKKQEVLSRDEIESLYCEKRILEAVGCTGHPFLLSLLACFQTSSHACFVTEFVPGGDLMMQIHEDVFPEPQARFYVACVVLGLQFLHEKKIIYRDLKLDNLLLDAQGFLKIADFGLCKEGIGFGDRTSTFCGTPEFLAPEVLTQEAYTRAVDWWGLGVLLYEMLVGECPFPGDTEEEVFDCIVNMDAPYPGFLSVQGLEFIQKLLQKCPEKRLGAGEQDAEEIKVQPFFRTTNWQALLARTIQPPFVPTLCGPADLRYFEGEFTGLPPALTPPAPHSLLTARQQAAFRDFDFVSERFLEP

SMILES | kinase still bound, per cent of control [1] | kinase still bound, per cent of control [2] | kinase still bound, per cent of control [3] | kinase still bound, per cent of control [4] | kinase still bound, per cent of control [5] | kinase still bound, per cent of control [7] | kinase still bound, per cent of control [8] | kinase still bound, per cent of control [9] | kinase still bound, per cent of control [10] | kinase still bound, per cent of control [11] | kinase still bound, per cent of control [12] | kinase still bound, per cent of control [13] | kinase still bound, per cent of control [14] | kinase still bound, per cent of control [15] | kinase still bound, per cent of control [16] | kinase still bound, per cent of control [17] | kinase still bound, per cent of control [19] | kinase still bound, per cent of control [21] | kinase still bound, per cent of control [22] | kinase still bound, per cent of control [23] | other results
CCOc1cc2ncc(C#N)c(Nc3ccc(OCc4ccccn4)c(Cl)c3)c2cc1NC(=O)/C=C/CN(C)C | 100% | 83% | 100% | 100% | 100% | 1.8% | 99% | 86% | 84% | 71% | 68% | 92% | 100% | 100% | 84% | 51% | 100% | 86% | 85% | 96% | kinase still bound, per cent of control [6]: 4.4%; kinase still bound, per cent of control [18]: 100%; kinase still bound, per cent of control [20]: 100%; kinase still bound, per cent of control [24]: 67%; kinase still bound, per cent of control [25]: 73%; kinase still bound, per cent of control [26]: 65%; kinase still bound, per cent of control [27]: 65%; kinase still bound, per cent of control [28]: 64%; kinase still bound, per cent of control [29]: 92%; kinase still bound, per cent of control [30]: 96%; kinase still bound, per cent of control [31]: 81%; kinase still bound, per cent of control [32]: 100%
Nc1ccc(-c2ccc3ncc4ccc(=O)n(-c5cccc(C(F)(F)F)c5)c4c3c2)cn1 | 100% | 82% | 79% | 91% | 63% | 84% | 80% | 100% | 100% | 100% | 92% | 100% | 100% | 100% | 100% | 100% | 67% | 100% | 100% | 100% | kinase still bound, per cent of control [33]: 67%; kinase still bound, per cent of control [34]: 98%; kinase still bound, per cent of control [35]: 71%; kinase still bound, per cent of control [6]: 100%; kinase still bound, per cent of control [36]: 0%; kinase still bound, per cent of control [37]: 93%; kinase still bound, per cent of control [24]: 100%; kinase still bound, per cent of control [25]: 79%; kinase still bound, per cent of control [26]: 84%; kinase still bound, per cent of control [27]: 53%; kinase still bound, per cent of control [38]: 92%; kinase still bound, per cent of control [39]: 78%; kinase still bound, per cent of control [40]: 68%; kinase still bound, per cent of control [28]: 80%; kinase still bound, per cent of control [29]: 92%; kinase still bound, per cent of control [30]: 85%; kinase still bound, per cent of control [31]: 100%; kinase still bound, per cent of control [32]: 100%
CCC(=O)N1CCN(c2ccc(-n3c(=O)ccc4cnc5ccc(-c6cnc7ccccc7c6)cc5c43)cc2C(F)(F)F)CC1 | 100% | 80% | 53% | 57% | 64% | 100% | 81% | 91% | 99% | 97% | 90% | 100% | 100% | 93% | 84% | 60% | 100% | 94% | 85% | 92% | kinase still bound, per cent of control [33]: 6.2%; kinase still bound, per cent of control [35]: 100%; kinase still bound, per cent of control [36]: 0%; kinase still bound, per cent of control [20]: 1%; kinase still bound, per cent of control [24]: 100%; kinase still bound, per cent of control [25]: 89%; kinase still bound, per cent of control [26]: 100%; kinase still bound, per cent of control [27]: 58%; kinase still bound, per cent of control [38]: 86%; kinase still bound, per cent of control [39]: 62%; kinase still bound, per cent of control [28]: 65%; kinase still bound, per cent of control [29]: 84%; kinase still bound, per cent of control [30]: 90%; kinase still bound, per cent of control [31]: 100%; kinase still bound, per cent of control [32]: 86%
